These results are taken from patent US11629154B2, “Tetrahydropyranooxazine derivatives having selective BACE1 inhibitory activity” (SHIONOGI & CO., LTD., priority 2018, dated 2023).

In data set [1] the target is P-gp (MDR1 expressing LLC-PK1 cells) (Homo sapiens (Human), UniProt P08183). The data set can be described thus: P-gp substrate test. The settings on record: MDR1/LLC-PK1 versus LLC-PK1. The data set is classed as in vitro ADME. The method, then:
1. MDR1 expressing LLC-PK1 cells and its parent cells were routinely cultured in Medium A (Medium 199 (Invitrogen) supplemented with 10% FBS (Invitrogen), gentamycin (0.05 mg/mL, Invitrogen) and hygromycin B (100 μg/mL, Invitrogen)) at 37° C. under 5% CO2/[…] gasses. For the transport experiments, these cells were seeded on Transwell (Registered trademark) insert (96-well, pore size: 0.4 μm, Coaster) at a density of 1.4×10^4 cells/insert and added Medium B (Medium 199 supplemented with 10% FBS and gentamycin at 0.05 mg/mL) to the feeder tray. These cells were incubated in a CO2 incubator (5% CO2/[…] gasses, 37° C.) and replace apical and basolateral culture medium every 48-72 hr after seeding. These cells were used between 4 and 6 days after seeding. 2. The medium in the culture insert seeded with MDR1 expressing cells or parent cells were removed by aspiration and rinsed by HBSS. The apical side (140 μL) or basolateral side (175 μL) was replaced with transport buffer containing reference substrates and the present invention and then an aliquot (50 μL) of transport buffer in the donor side was collected to estimate initial concentration of reference substrate and the present invention. After incubation for designed time at 37° C., an aliquot (50 μL) of transport buffer in the donor and receiver side were collected. Assay was performed by duplicate or triplicate. 3. Reference substrate and the present invention in the aliquot was quantified by LC/MS/MS.
Permeated amounts across monolayers of MDR1 expressing and parent cells were determined, and permeation coefficients (Pe) were calculated using Excel 2003 from the following equitation: Pe (cm/sec)=Permeated amount (pmol)/area of cell membrane (cm^2)/initial concentration (nM)/incubation time (sec) Where, permeated amount was calculated from permeation concentration (nM, concentration of the receiver side) of the substance after incubation for the defined time (sec) multiplied by volume (mL) and area of cell membrane was used 0.1433 (cm2).
The efflux ratio was calculated using the following equation: Efflux Ratio=Basolateral-to-Apical Pe/Apical-to-Basolateral Pe The net flux was calculated using the following equation: Net flux=Efflux Ratio in MDR1 expressing cells/Efflux Ratio in parent cells

A short description of the next data set: Metabolic stability test. The data set is classed as in vitro ADME. The settings on record: human liver microsomes, 37° C., NADPH. The method, then: Using a commercially available pooled human liver microsomes, a compound of the present invention was reacted for a constant time, a remaining rate was calculated by comparing a reacted sample and an unreacted sample, thereby, a degree of metabolism in liver was assessed.
A reaction was performed (oxidative reaction) at 37° C. for 0 minute or 30 minutes in the presence of 1 mmol/L NADPH in 0.2 mL of a buffer (50 mmol/L Tris-HCl pH 7.4, 150 mmol/L potassium chloride, 10 mmol/L magnesium chloride) containing 0.5 mg protein/mL of human liver microsomes. After the reaction, 50 μL of the reaction solution was added to 100 μL of a methanol/acetonitrile=1/1 (v/v), mixed and centrifuged at 3000 rpm for 15 minutes. The compound of the present invention in the supernatant was quantified by LC/MS/MS or solid phase extraction (SPE)MS, and a remaining amount of the compound of the present invention after the reaction was calculated, letting a compound amount at 0 minute reaction time to be 100%.
(In general: Liver microsomes are vesicles of endoplasmic reticulum, rich in cytochrome P450 enzymes.)

In data set [2] the target is human ether-a-go-go related gene (hERG) channel (Homo sapiens (Human), UniProt Q12809). The data set can be described thus: hERG test. The data set is classed as cell-based. The settings on record: CHO cells expressing hERG. The source says: For the purpose of assessing risk of an electrocardiogram QT interval prolongation, effects on delayed rectifier K+ current (IKr), which plays an important role in the ventricular repolarization process of the compound of the present invention, was studied using CHO cells expressing human ether-a-go-go related gene (hERG) channel.
Sequence of human ether-a-go-go related gene (hERG) channel (Q12809 whole entry): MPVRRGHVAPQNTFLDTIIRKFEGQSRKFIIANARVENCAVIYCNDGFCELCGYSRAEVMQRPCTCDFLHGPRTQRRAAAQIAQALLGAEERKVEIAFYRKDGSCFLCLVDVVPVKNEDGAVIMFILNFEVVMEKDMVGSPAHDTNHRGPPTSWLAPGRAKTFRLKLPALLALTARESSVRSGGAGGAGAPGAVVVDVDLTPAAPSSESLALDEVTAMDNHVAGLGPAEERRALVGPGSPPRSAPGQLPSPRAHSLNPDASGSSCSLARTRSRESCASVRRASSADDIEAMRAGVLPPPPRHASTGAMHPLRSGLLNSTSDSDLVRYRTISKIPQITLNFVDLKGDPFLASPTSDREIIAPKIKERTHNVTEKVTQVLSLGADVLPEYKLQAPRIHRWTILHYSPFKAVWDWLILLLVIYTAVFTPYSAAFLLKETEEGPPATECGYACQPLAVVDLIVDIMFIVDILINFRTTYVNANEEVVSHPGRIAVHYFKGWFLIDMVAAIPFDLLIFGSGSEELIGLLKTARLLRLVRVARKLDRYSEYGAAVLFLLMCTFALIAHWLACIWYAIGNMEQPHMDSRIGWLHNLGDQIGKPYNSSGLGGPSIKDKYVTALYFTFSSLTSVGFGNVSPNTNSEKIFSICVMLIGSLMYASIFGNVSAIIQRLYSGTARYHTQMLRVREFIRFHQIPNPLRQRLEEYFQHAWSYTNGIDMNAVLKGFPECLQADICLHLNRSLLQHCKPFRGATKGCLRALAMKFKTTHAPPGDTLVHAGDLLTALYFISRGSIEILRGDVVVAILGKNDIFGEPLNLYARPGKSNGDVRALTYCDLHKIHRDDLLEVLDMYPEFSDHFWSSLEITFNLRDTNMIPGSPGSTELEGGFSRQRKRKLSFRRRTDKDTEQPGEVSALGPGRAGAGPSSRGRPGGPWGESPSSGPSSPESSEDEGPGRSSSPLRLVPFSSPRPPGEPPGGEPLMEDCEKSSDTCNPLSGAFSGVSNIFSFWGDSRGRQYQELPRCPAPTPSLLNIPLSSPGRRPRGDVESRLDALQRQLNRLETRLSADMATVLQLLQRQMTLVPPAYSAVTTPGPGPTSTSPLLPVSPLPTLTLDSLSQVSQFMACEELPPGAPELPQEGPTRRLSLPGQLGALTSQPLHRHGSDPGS
A cell was retained at a membrane potential of −80 mV by whole cell patch clamp method using an automated patch clamp system (QPatch; Sophion Bioscience A/S). After application of leak potential at −50 mV, IKr induced by depolarization pulse stimulation at +20 mV for 2 seconds and, further, repolarization pulse stimulation at −50 mV for 2 seconds was recorded.
Further, the % inhibition relative to the tail peak current before application of the compound of the present invention was calculated, and compared with the vehicle-applied group (0.1% dimethyl sulfoxide solution) to assess influence of the compound of the present invention on IKr.

In another data set the target is CYP3A4 (Homo sapiens (Human), UniProt P08684). The data set can be described thus: CYP3A4(MDZ) MBI test. The data set is classed as in vitro ADME. The settings on record: pooled human liver microsomes, midazolam 1-hydroxylation, preincubation 0 or 30 minutes. The method, then: CYP3A4(MDZ) MBI test is a test of investigating mechanism based inhibition (MBI) potential on CYP3A4 inhibition of a compound. CYP3A4 inhibition is evaluated using 1-hydroxylation reaction of midazolam (MDZ) by pooled human liver microsomes as a marker reaction.
Sequence of CYP3A4 (P08684 whole entry): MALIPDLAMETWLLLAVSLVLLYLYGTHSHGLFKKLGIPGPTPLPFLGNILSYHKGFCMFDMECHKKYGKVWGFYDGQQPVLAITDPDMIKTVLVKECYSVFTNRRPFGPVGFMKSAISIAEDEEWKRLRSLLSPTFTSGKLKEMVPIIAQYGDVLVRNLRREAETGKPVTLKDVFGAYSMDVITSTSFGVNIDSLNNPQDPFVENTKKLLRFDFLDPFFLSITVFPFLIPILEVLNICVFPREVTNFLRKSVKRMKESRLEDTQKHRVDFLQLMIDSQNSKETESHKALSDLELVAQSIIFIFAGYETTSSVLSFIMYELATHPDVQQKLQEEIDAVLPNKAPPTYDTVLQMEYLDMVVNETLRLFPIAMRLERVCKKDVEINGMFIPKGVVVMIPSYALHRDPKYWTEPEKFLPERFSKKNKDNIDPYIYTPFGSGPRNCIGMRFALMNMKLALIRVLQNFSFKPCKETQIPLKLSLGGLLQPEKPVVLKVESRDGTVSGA
The reaction conditions were as follows: substrate, 10 μmol/L MDZ; pre-reaction time, 0 or 30 minutes; substrate reaction time, 2 minutes; reaction temperature, 37° C.; protein content of pooled human liver microsomes, 0.5 mg/mL at pre-reaction time, […] (at 10-fold dilution) at reaction time; concentrations of the compound of the present invention, 1, 5, 10, 20 μmol/L (4 points).
Pooled human liver microsomes in a K-Pi buffer (pH 7.4) and a compound of the present invention solution as a pre-reaction solution were added to a 96-well plate at the composition of the pre-reaction. A part of pre-reaction solution was transferred to another 96-well plate, and diluted 10-fold by a substrate in a K-Pi buffer. NADPH as a co-factor was added to initiate the marker reaction (without preincubation). After a predetermined time of the marker reaction, methanol/acetonitrile=1/1 (v/v) solution was added in order to terminate the marker reaction. On the other hand, NADPH was also added to a remaining pre-reaction solution in order to initiate a pre-reaction (with preincubation). After a predetermined time of a pre-reaction, a part was transferred to another 96-well plate, and diluted 10-fold by a substrate in a K-Pi buffer in order to initiate the marker reaction. After a predetermined time of the marker reaction, methanol/acetonitrile=1/1 (v/v) solution is added in order to terminate the marker reaction. After centrifuged at 3000 rpm for 15 minutes, 1-hydroxymidazolam in the supernatant is quantified by LC/MS/MS.
The sample adding DMSO to a reaction system instead of compound of the present invention solution was adopted as a control (100%) because DMSO is used as a solvent to dissolve a compound of the present invention. Remaining activity (%) was calculated at each concentration of the compound of the present invention added as the solution, and IC50 value was calculated by reverse-presumption using a logistic model with a concentration and an inhibition rate. Shifted IC value was calculated as “IC value without preincubation (0 minutes)/IC value with preincubation (30 minutes)″. When a shifted IC value was 1.5 or more, this was defined as positive. When a shifted IC value was less than 1.1, this was defined as negative.

Sequence of P-gp (MDR1 expressing LLC-PK1 cells) (P08183 whole entry): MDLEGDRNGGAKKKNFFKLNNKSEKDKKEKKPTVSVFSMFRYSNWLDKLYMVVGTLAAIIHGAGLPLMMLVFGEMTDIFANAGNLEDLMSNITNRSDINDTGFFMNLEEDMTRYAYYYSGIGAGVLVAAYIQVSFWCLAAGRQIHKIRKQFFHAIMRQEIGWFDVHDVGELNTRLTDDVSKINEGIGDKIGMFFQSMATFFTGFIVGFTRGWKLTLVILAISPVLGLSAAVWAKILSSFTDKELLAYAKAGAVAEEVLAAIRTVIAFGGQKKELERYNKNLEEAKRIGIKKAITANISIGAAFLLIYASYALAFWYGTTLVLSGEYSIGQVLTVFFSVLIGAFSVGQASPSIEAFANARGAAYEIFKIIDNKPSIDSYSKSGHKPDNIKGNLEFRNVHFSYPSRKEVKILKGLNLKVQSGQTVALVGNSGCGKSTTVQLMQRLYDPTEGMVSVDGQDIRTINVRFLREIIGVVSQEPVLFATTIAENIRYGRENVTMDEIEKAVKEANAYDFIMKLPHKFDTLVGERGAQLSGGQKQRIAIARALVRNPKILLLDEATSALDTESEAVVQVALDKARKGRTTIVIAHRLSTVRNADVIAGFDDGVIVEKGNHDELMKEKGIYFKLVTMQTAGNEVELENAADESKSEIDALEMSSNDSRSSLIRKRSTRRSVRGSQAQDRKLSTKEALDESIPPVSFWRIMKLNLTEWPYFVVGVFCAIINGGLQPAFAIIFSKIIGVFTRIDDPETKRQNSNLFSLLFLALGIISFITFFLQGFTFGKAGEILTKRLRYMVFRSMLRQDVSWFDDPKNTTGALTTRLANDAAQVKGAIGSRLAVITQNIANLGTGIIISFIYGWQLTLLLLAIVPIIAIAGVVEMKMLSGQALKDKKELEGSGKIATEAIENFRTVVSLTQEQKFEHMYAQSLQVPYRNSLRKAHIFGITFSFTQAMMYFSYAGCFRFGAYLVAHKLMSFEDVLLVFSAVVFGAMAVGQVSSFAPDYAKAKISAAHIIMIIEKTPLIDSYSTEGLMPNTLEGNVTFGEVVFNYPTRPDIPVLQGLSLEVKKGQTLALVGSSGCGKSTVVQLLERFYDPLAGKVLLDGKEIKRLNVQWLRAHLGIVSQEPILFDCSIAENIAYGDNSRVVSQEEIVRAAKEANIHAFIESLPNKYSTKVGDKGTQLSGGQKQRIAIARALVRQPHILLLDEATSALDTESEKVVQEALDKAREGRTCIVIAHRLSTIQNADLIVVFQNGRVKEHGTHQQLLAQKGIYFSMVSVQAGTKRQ

On to `NC1=N[C@](CF)(c2cc(NC(=O)c3cnc(OCF)cn3)ccc2F)[C@H]2COCC[C@H]2O1` [Compound I-007], for which the “P-gp ER ratio” value in data set [1] is recorded as 5.5. In “Metabolic stability test”, the “Remaining rate(%) at 30 min” value was found to be 107%. Besides, in data set [2], the “hERG inhibition (%) at 3 μM” value turned out to be 6.83%. Also, the “MBI MDZ” value on CYP3A4 is given as “Negative (When a shifted IC value was less than 1.1, this was defined as negative)”.
Consider `COc1cnc(C(=O)Nc2ccc(F)c([C@@]3(CF)N=C(N)O[C@@H]4CCOC[C@@H]43)c2)cn1` [Compound I-067], for which the “P-gp ER ratio” value in data set [1] is reported as 6.1. Also, the “Remaining rate(%) at 30 min” value in the data set “Metabolic stability test” came to 91.4%. Moreover, in data set [2], the “hERG inhibition (%) at 3 μM” value is recorded as 5.39%. Besides, the “MBI MDZ” value on CYP3A4 is “Negative (When a shifted IC value was less than 1.1, this was defined as negative)”.
`C[C@@H]1C[C@H]2OC(N)=N[C@](CF)(c3cc(NC(=O)c4cnc(OCF)cn4)ccc3Cl)[C@H]2CO1` [Compound I-065]: in data set [1], the “P-gp ER ratio” value was found to be 5.7. Moreover, in “Metabolic stability test”, the “Remaining rate(%) at 30 min” value is given as 79.6%. Besides, the “hERG inhibition (%) at 3 μM” value in data set [2] was 37.8%. For the same compound, the “MBI MDZ” value on CYP3A4 is recorded as “Negative (When a shifted IC value was less than 1.1, this was defined as negative)”.
Consider `NC1=N[C@](CF)(c2cc(NC(=O)c3cnc(-n4cncn4)cn3)ccc2F)[C@H]2COCC[C@H]2O1` [Compound I-047], for which the “P-gp ER ratio” value in data set [1] is reported as 4.7. Moreover, in “Metabolic stability test”, the “Remaining rate(%) at 30 min” value is 61.6%. Also, the “hERG inhibition (%) at 3 μM” value in data set [2] came out at 11.6%. In addition, at CYP3A4, the “MBI MDZ” value was “Negative (When a shifted IC value was less than 1.1, this was defined as negative)”.
For the compound `C[C@@H]1C[C@H]2OC(N)=N[C@](CF)(c3cc(NC(=O)c4cnc(OCF)cn4)ccc3F)[C@H]2CO1` [Compound I-008], in data set [1], the “P-gp ER ratio” value is listed as 6.2. Moreover, the “Remaining rate(%) at 30 min” value in the data set “Metabolic stability test” was determined as 94.4%. For the same compound, the “hERG inhibition (%) at 3 μM” value in data set [2] is 18.5%. Besides, the “MBI MDZ” value at CYP3A4 is “Negative (When a shifted IC value was less than 1.1, this was defined as negative)”.
For the compound `NC1=N[C@](CF)(c2cc(NC(=O)c3cnc(OC(F)F)cn3)ccc2F)[C@H]2COCC[C@H]2O1` [Compound I-076], the “P-gp ER ratio” value in data set [1] amounted to 6.2. Moreover, the “Remaining rate(%) at 30 min” value in “Metabolic stability test” amounted to 91.7%. In addition, the “hERG inhibition (%) at 3 μM” value in data set [2] came out at 18.5%. In addition, the “MBI MDZ” value on CYP3A4 is recorded as “Negative (When a shifted IC value was less than 1.1, this was defined as negative)”.
For the compound `NC1=N[C@](CF)(c2cc(NC(=O)c3ccc(C(F)(F)F)cn3)ccc2F)[C@H]2COCC[C@H]2O1` [Compound I-105], in data set [1], the “P-gp ER ratio” value is 7.1. In addition, the “Remaining rate(%) at 30 min” value in “Metabolic stability test” was 87.9%. Further, in data set [2], the “hERG inhibition (%) at 3 μM” value is listed as 40.8%. For the same compound, on CYP3A4, the “MBI MDZ” value was “Negative (When a shifted IC value was less than 1.1, this was defined as negative)”.
